Measured values: ChEMBL document CHEMBL3351647, “Organochalcogen compounds from glycerol: synthesis of new antioxidants” (Bioorg Med Chem, 2014)
pIC50: −log10 of the molar value.

Experiments:
Type in all cases: physicochemical
[1] = Antioxidant activity assessed as DPPH radical scavenging activity at 10 uM by spectrophotometry relative to control
[2] = Antioxidant activity assessed as DPPH radical scavenging activity at 50 uM by spectrophotometry relative to control
[3] = Antioxidant activity assessed as DPPH radical scavenging activity at 100 uM by spectrophotometry relative to control
[4] = Antioxidant activity assessed as DPPH radical scavenging activity at 500 uM by spectrophotometry relative to control
[5] = Antioxidant activity assessed as DPPH radical scavenging activity by spectrophotometry relative to control
[6] = Antioxidant activity assessed as ABTS radical scavenging activity at 1 uM by spectrophotometry relative to control
[7] = Antioxidant activity assessed as ABTS radical scavenging activity at 5 uM by spectrophotometry relative to control
[8] = Antioxidant activity assessed as ABTS radical scavenging activity at 10 uM by spectrophotometry relative to control
[9] = Antioxidant activity assessed as ABTS radical scavenging activity at 25 uM by spectrophotometry relative to control
[10] = Antioxidant activity assessed as ABTS radical scavenging activity at 50 uM by spectrophotometry relative to control
[11] = Antioxidant activity assessed as ABTS radical scavenging activity at 100 uM by spectrophotometry relative to control
[12] = Antioxidant activity assessed as ABTS radical scavenging activity at 500 uM by spectrophotometry relative to control
[13] = Antioxidant activity assessed as ABTS radical scavenging activity by spectrophotometry relative to control
[14] = Antioxidant activity assessed as […] scavenging activity by measuring NaNO2 at 10 uM by spectrophotometry
[15] = Antioxidant activity assessed as […] scavenging activity by measuring NaNO2 at 50 uM by spectrophotometry
[16] = Antioxidant activity assessed as […] scavenging activity by measuring NaNO2 at 100 uM by spectrophotometry
[17] = Antioxidant activity assessed as […] scavenging activity by measuring NaNO2 at 500 uM by spectrophotometry
[18] = Antioxidant activity assessed as ferric ion reducing activity at 10 to 500 uM after 40 mins by spectrophotometry relative to control
[19] = Antioxidant activity assessed as hydroxyl radical scavenging activity
[20] = Antioxidant activity assessed as superoxide dismutase-like activity
[21] = Antioxidant activity assessed as inhibition of Fe2+/ascorbic acid-induced linoleic acid peroxidation at 1 uM by spectrophotometry relative to control; parameters: scale not given: the % may be the effect or the level left
[22] = Antioxidant activity assessed as inhibition of Fe2+/ascorbic acid-induced linoleic acid peroxidation at 5 uM by spectrophotometry relative to control; parameters: scale not given: the % may be the effect or the level left
[23] = Antioxidant activity assessed as inhibition of Fe2+/ascorbic acid-induced linoleic acid peroxidation at 10 uM by spectrophotometry relative to control; parameters: scale not given: the % may be the effect or the level left
[24] = Antioxidant activity assessed as inhibition of Fe2+/ascorbic acid-induced linoleic acid peroxidation at 50 uM by spectrophotometry relative to control; parameters: scale not given: the % may be the effect or the level left
[25] = Antioxidant activity assessed as inhibition of Fe2+/ascorbic acid-induced linoleic acid peroxidation at 100 uM by spectrophotometry relative to control; parameters: scale not given: the % may be the effect or the level left
[26] = Antioxidant activity assessed as inhibition of Fe2+/ascorbic acid-induced linoleic acid peroxidation at 500 uM by spectrophotometry relative to control; parameters: scale not given: the % may be the effect or the level left
[27] = Antioxidant activity assessed as inhibition of Fe2+/ascorbic acid-induced linoleic acid peroxidation by spectrophotometry relative to control

| Structure (SMILES) | Activity [1] | Activity [2] | Activity [3] | Activity [4] | Activity [8] | Activity [9] | Activity [10] | Activity [11] | Activity [12] | Activity [14] | Activity [15] | Activity [16] | Activity [17] | Activity [18] | Activity [19] | Activity [21] | Activity [22] | Activity [23] | Activity [24] | Activity [25] | other results |
| --- | --- | --- | --- | --- | --- | --- | --- | --- | --- | --- | --- | --- | --- | --- | --- | --- | --- | --- | --- | --- | --- |
| CC1(C)OCC(C[Te]c2ccccc2)O1 (stereo not given) | 3.57% | 11.08% | 22.55% | 77.86% | 22.72% | 53.41% | 90.64% | 99.5% | 99.9% | 64.13 µM | 55.95 µM | 54.93 µM | 44.49 µM | Active | Not Active | 79.46% | 66.29% | 57.39% | 43.34% | 31.66% | pIC50 [5]: 3.51; Activity [6]: 2.18%; Activity [7]: 12.04%; pIC50 [13]: 4.61; Activity [20]: Not Active; Activity [26]: 20.6%; pIC50 [27]: 4.61 |
| CC1(C)OCC(CSc2ccccc2)O1 (stereo not given) | 0.01% | 1.07% | 0.5% | 1.65% | 0.47% | 0% | 0.15% | 0.36% | 0.08% | 49.59 µM | 50.91 µM | 50.48 µM | 49.68 µM | Not Active | Not Active | 86.7% | 87.79% | 76.51% | 76.51% | 74.88% | Activity [26]: 72.46% |
| CC1(C)OCC(C[Se]c2ccccc2)O1 (stereo not given) | 0.98% | 0.63% | 0.63% | 1.3% | 0% | 0% | 1.19% | 1.15% | 4.75% | 54.43 µM | 52.5 µM | 51.95 µM | 49.65 µM | Not Active | Not Active | 88.37% | 94.34% | 86.97% | 89.97% | 86.55% | Activity [26]: 81.22% |
| CC1(C)OCC(CO)O1 (stereo not given) | 0.54% | 0.98% | 0.98% | 0.98% | 0% | 0% | 0.85% | 1.7% | 9.84% | 56.6 µM | 55.45 µM | 52.22 µM | 54.47 µM | Not Active | Not Active | 72.67% | 66.2% | 79.89% | 72.35% | 72.48% | Activity [26]: 76.4% |
